≈ marks a conversion by molar mass, not a printed value. Calls of active or inactive are those of the source. No cut-off for these calls is given here.
Legend:
DU-145 = experiment: Antitumor activity against Prostate DU-145 cells was evaluated; No biological activity; assay type: functional, cell-based; settings: Homo sapiens
SW 1736 = experiment: Antitumor activity against Thyroid ca SW 1736 cells was evaluated; No biological activity; assay type: functional, cell-based; settings: Homo sapiens
KAT-4 = experiment: Antitumor activity against Thyroid ca KAT-4 cells was evaluated; No biological activity; assay type: functional, cell-based; settings: Homo sapiens
Homo sapiens [1] = species: Homo sapiens; experiment: Antitumor activity against Pharynx-sq FADU cells was evaluated; No biological activity; assay type: functional
NCI-H460 = experiment: Antitumor activity against Lung-NSC NCI-H460 cells was evaluated; No biological activity; assay type: functional, cell-based; settings: Homo sapiens
BXPC-3 = experiment: Antitumor activity against Pancreas-a BXPC-3 cells was evaluated; No biological activity; assay type: functional, cell-based; settings: Homo sapiens
[2] = Antitumor activity was evaluated by the growth inhibition of Prostate DU-145 cells; Active; assay type: functional; settings: Homo sapiens
[3] = Antitumor activity was evaluated by the lethal concentration of Thyroid ca SW 1736 cells; Active; assay type: functional; settings: Homo sapiens, read-out: LC50 (the source's name)
[4] = Antitumor activity was evaluated by the growth inhibition of Thyroid ca SW 1736 cells; Active; assay type: functional; settings: Homo sapiens
[5] = Antitumor activity was evaluated by the total growth inhibition of Prostate DU-145 cells; Active; assay type: functional; settings: Homo sapiens, DU-145, read-out: TGI50
[6] = Antitumor activity was evaluated by the lethal concentration of Lung-NSC NCI-H460 cells; Active; assay type: functional; settings: Homo sapiens, read-out: LC50 (the source's name)
[7] = Antitumor activity was evaluated by the total growth inhibition of Thyroid ca SW 1736 cells; Active; assay type: functional; settings: Homo sapiens, SW-1736, read-out: TGI50
Homo sapiens [8] = species: Homo sapiens; experiment: Antitumor activity was evaluated by the lethal concentration of Pharynx-sq FADU cells; Active; assay type: functional; settings: read-out: LC50 (the source's name)
[9] = Antitumor activity was evaluated by the total growth inhibition of Pancreas-a BXPC-3 cells; Active; assay type: functional; settings: Homo sapiens, BXPC-3, read-out: TGI50
[10] = Antitumor activity was evaluated by the total growth inhibition of Lung-NSC NCI-H460 cells; Active; assay type: functional; settings: Homo sapiens, NCI-H460, read-out: TGI50
[11] = Antitumor activity was evaluated by the growth inhibition of Lung-NSC NCI-H460 cells; Active; assay type: functional; settings: Homo sapiens
[12] = Antitumor activity was evaluated by the lethal concentration of Pancreas-a BXPC-3 cells; Active; assay type: functional; settings: Homo sapiens, read-out: LC50 (the source's name)
[13] = Antitumor activity was evaluated by the lethal concentration of Prostate DU-145 cells; Active; assay type: functional; settings: Homo sapiens, read-out: LC50 (the source's name)
[14] = Antitumor activity was evaluated by the total growth inhibition of Thyroid ca KAT-4 cells; Active; assay type: functional; settings: Homo sapiens, KAT-4, read-out: TGI50
Homo sapiens [15] = species: Homo sapiens; experiment: Antitumor activity was evaluated by the growth inhibition of Pharynx-sq FADU cells; Active; assay type: functional
Homo sapiens [16] = species: Homo sapiens; experiment: Antitumor activity was evaluated by the total growth inhibition of Pharynx-sq FADU cells; Active; assay type: functional; settings: read-out: TGI50
[17] = Antitumor activity was evaluated by the growth inhibition of Thyroid ca KAT-4 cells; Active; assay type: functional; settings: Homo sapiens
[18] = Antitumor activity was evaluated by the growth inhibition of Pancreas-a BXPC-3 cells; Active; assay type: functional; settings: Homo sapiens
[19] = Antitumor activity was evaluated by the lethal concentration of Thyroid ca KAT-4 cells; Active; assay type: functional; settings: Homo sapiens, read-out: LC50 (the source's name)

In the case of `C[C@H]1C(COCc2ccccc2)OC(=O)[C@@H](O)[C@@H]1O` (some centres undefined), the Activity (DU-145) is reported as “inactive”, the Activity (SW 1736) is reported as “inactive” and the Activity (KAT-4) is reported as “inactive”. For the same compound, the Activity (Homo sapiens [1]) was “inactive”, the Activity (NCI-H460) was “inactive” and the Activity (BXPC-3) was “inactive”.
Work on `C[C@@H]1[C@@H](O)[C@H](O)C(=O)O[C@H]1[C@H]1COC(C)(C)O1` yielded a GI50 [2] of 2.7 µg/mL (≈ 11 µM), a CC50 [3] greater than 10000 µg/mL and a GI50 [4] of 8.5 µg/mL (≈ 34.5 µM). It also gave a GI50 [5] greater than 10 µg/mL, a CC50 [6] greater than 10000 µg/mL and a GI50 [7] greater than 10 µg/mL. For the same compound, the CC50 (Homo sapiens [8]) was greater than 10000 µg/mL, the GI50 [9] was greater than 10 µg/mL and the GI50 [10] was greater than 10 µg/mL. For the same compound, the GI50 [11] was 2.9 µg/mL (≈ 11.8 µM), the CC50 [12] was greater than 10000 µg/mL and the CC50 [13] was greater than 10000 µg/mL. For the same compound, the GI50 [14] was greater than 10 µg/mL, the GI50 (Homo sapiens [15]) was 3.7 µg/mL (≈ 15 µM) and the GI50 (Homo sapiens [16]) was greater than 10 µg/mL. It also gave a GI50 [17] greater than 10 µg/mL, a GI50 [18] greater than 10 µg/mL and a CC50 [19] greater than 10000 µg/mL.

Source: ChEMBL document CHEMBL1130857, “Synthesis and biological activity of lactones en route to Altohyrtin A” (1998)
